From publication PMC4759478, “Novel EGFR inhibitors attenuate cardiac hypertrophy induced by angiotensin II” (Journal of Cellular and Molecular Medicine, 2016)

Assays:
[1] = test system: AngII-induced cardiac hypertrophy in C57BL/6 mice; experiment: Echocardiography and heart weight/bodyweight in AngII-induced cardiac hypertrophy mice; assay type: in vivo, mouse; conditions: AngII-treated C57BL/6 mice, 20 mg/kg/day for 2 weeks, n = 7
Procedure: Cardiac hypertrophy was induced in 6‐week‐old C57BL/6 mice by a […] subcutaneous injection of AngII (0.5 mg/kg/2 days for 2 weeks) in phosphate buffer (pH 7.2), as described previously 18. Mice in vehicle control group and Ang II group received 1% CMC‐Na solution alone in the same schedule as compound‐treated groups. Animals were killed under sodium pentobarbital anaesthesia. After mice was killed, heart tissues were embedded in 4% paraformaldehyde for pathological analysis and/or snap‐frozen in liquid nitrogen for gene and protein expression analysis. In addition, the blood was collected from the right ventricle using a heparin‐containing syringe with a needle at the time of death.
At the day before the sacrifice, Doppler analysis was performed to ensure that pathologic cardiac hypertrophy was induced. The internal diameter and wall thickness of left ventricle (LV) were assessed by echocardiography 19. Hearts of the killed mice were dissected and weighted to compare heart weight/bodyweight (mg/kg) ratios in mice. Mice was anaesthetized with isoflurane, echocardiography was performed by SONOS 5500 ultrasound (Philips Electronics, Amsterdam, the Netherlands) with a 15‐MHz linear array ultrasound transducer. The LV was assessed in both parasternal long‐axis and short‐axis views at a frame rate of 120 Hz. End‐systole or end‐diastole was defined as the phase in which the smallest or largest area of LV respectively. LV posterior wall (LVPW) and LV internal dimension (LVID) were measured from LV M‐model tracing with a sweep speed of 50 mm/sec. at the mid‐papillary muscle level.

[2] = test system: EGFR signalling in H9c2 cells; conditions: 10 μM pre-treatment 2 hrs, EGF 100 ng/ml 15 min, Western blot
Procedure: (§1) Cells or heart tissues (30–50 mg) were lysated. […] Each PVDF membrane was incubated with specific antibodies.

[3] = test system: EGFR signalling in H9c2 cells; experiment: Ang II-induced EGFR/AKT/ERK phosphorylation in H9c2 cells (Western blot); assay type: cell-based, rat; conditions: Ang II 1 μM 15 min
Procedure: as §1

[4] = test system: H9c2 cells; experiment: EGF-induced hypertrophy of H9c2 cells (Western blot, RT-qPCR, immunofluorescence); assay type: cell-based, rat; conditions: pre-treatment 2 hrs (AG1478 10 μM; 542/543 1-10 μM), EGF 100 ng/ml 6 hrs (mRNA) or 12 hrs (MyHC)
Procedure: as §1

[5] = test system: heart tissues of Ang II-treated C57BL/6 mice; experiment: Heart histopathology, Masson fibrosis staining, RT-qPCR and immunohistochemistry in Ang II-treated mice; assay type: in vivo, mouse; conditions: Ang II 2 weeks
Procedure: Cardiac hypertrophy was induced in 6-week-old C57BL/6 mice by a […] subcutaneous injection of AngII (0.5 mg/kg/2 days for 2 weeks) in phosphate buffer (pH 7.2), as described previously 18. Mice in vehicle control group and Ang II group received 1% CMC-Na solution alone in the same schedule as compound-treated groups. Animals were killed under sodium pentobarbital anaesthesia. After mice was killed, heart tissues were embedded in 4% paraformaldehyde for pathological analysis and/or snap-frozen in liquid nitrogen for gene and protein expression analysis. In addition, the blood was collected from the right ventricle using a heparin-containing syringe with a needle at the time of death. […] Hearts were fixed in 4% paraformaldehyde and embedded in paraffin. The paraffin sections (5 μm) were stained with haematoxylin and eosin. To estimate the extent of damage, the specimen was observed under a light microscope (×200 amplification; Nikon, Tokyo, Japan). After deparaffinization and rehydration, 5 μm heart sections were treated with 3% H2O2 for 30 min. and with 1% BSA in PBS for 30 min. Slides were incubated overnight at 4°C with primary antibody (1:50) then incubated with secondary antibody (1:100; Santa Cruz Biotech) for 1 hr and DAB (A: B = 1: 20) for 5 min. at room temperature. At last the cell nuclei were stained with haematoxylin for 5 min., the sections were dehydrated and the images were viewed by a light microscope (×200 amplification; Nikon). Tissues were fixed in paraformaldehyde solution and embedded in paraffin. Paraffin sections (5 μm) of the heart tissues were stained with Masson to evaluate the fibrosis content. The stained sections then were viewed by light microscope (×200 amplification; Nikon).

[6] = test system: primary neonatal rat cardiomyocytes; experiment: Ang II-stimulated primary neonatal rat cardiomyocytes (Western blot, RT-qPCR); assay type: cell-based; conditions: 10 μM pre-treatment 2h, Ang II 1 μM 15min
Procedure: Cells were incubated with a DMEM medium that contained 5.5 mmol/L of D-glucose.
Figure S1. Effects of EGFR inhibitos in Ang II-stimulated primary neonatal rat cardiomyocytes. […] The cell lysates were collected and p-EGFR/EGFR (A) and p-AKT/p-ERK/GAPDH (B) were detected by Western Blot analysis. […] The cell lysates were collected and MyHC/GAPDH was detected by Western Blot analysis. […] The mRNA levels of ANP (D), β/α-MyHC (E), and SKA (F) were detected by RT-qPCR assay.

[7] = test system: c-Src phosphorylation in H9c2 cells; experiment: Ang II-induced c-Src phosphorylation in H9c2 cells (Western blot); assay type: cell-based, rat; conditions: 10 μM pre-treatment 2 hrs, Ang II 1 μM 15 min
Procedure: as §1

| SMILES | HR [1] | HW (mg)/BW (g) [1] | LVIDd (diastole left ventricle internal dimension) [1] | LVIDs (systolic left ventricle internal dimension) [1] | LVPW (left ventricle posterior wall) [1] | VS [1] | activation of EGFR and downstream signalling (EGFR, AKT, ERK phosphorylation) induced by EGF [2] | activation of EGFR and downstream signalling (EGFR, AKT, ERK phosphorylation) induced by Ang II ([3]; AG1478 10 μM, 542/543 1, 2.5, 5 or 10 μM pre-treatment 2 hrs) | EGF-induced overexpression of pro-hypertrophic genes (MyHC, ANP, BNP, β/α-MyHC, SKA) [4] | cardiac EGFR signalling pathway activation (p-EGFR, p-ERK, p-AKT immunohistochemical staining) ([5]; 20 mg/kg) | Ang II-induced increases in heart expression of hypertrophic genes ANP, BNP, β/α-MyHC, SKA (RT-qPCR) ([5]; AG1478 20 mg/kg/day, 542 at both dosages (5 and 20 mg/kg/day)) | Ang II-induced heart structural abnormalities (haematoxylin and eosin staining) ([5]; daily treatment) | Ang II-increased phosphorylation of EGFR in primary cardiomyocytes [6] | Ang II-induced phosphorylation of EGFR ([3]; PP2 10 μM pre-treatment 2 hrs) | Ang II-induced phosphorylation of c-Src [7] |
| --- | --- | --- | --- | --- | --- | --- | --- | --- | --- | --- | --- | --- | --- | --- | --- |
| COc1cc2ncnc(Nc3cccc(Cl)c3)c2cc1OC [AG1478] | 345.83 ± 70.87 | 5.68 ± 0.62 mg/g | 2.90 ± 0.26 mm | 1.57 ± 0.21 mm | 0.88 ± 0.03 mm | 0.95 ± 0.02 mm | inhibits | inhibits | significantly inhibited | significantly inhibited | significantly blocked | significantly attenuated | markedly reversed | – | – |
| CC(C)(C)n1nc(-c2ccc(Cl)cc2)c2c(N)ncnc21 [PP2] | – | – | – | – | – | – | – | – | – | – | – | – | – | almost totally inhibited | almost totally inhibited |
